pEC50: −log10 of the molar value. Like-named read-outs stand apart in the source and are kept apart here.
Molecular target: T1, human OX2R (Homo sapiens, UniProt O43614)
T1 construct: expressed in transfected cells; host or cells: CHO (Chinese hamster ovary) cells, grown under G418 selection
T1 sequence (O43614 1-444): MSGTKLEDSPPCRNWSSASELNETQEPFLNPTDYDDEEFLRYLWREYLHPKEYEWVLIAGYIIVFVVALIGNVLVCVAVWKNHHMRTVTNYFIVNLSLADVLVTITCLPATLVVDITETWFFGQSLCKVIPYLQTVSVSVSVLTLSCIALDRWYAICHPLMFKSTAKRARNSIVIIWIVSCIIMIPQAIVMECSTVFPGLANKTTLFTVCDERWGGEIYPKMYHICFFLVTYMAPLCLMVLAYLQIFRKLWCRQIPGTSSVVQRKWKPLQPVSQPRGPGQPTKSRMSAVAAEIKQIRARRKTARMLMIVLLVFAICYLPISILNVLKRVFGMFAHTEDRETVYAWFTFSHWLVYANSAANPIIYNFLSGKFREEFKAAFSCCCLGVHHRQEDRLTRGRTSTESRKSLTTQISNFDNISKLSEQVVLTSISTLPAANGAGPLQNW
Assay: IPOne (IP-1 accumulation) assay in CHO cells expressing human OX2R
Format: cell-based
Conditions: for Emax, % of reference agonist: OX2R, percentage of sample raw value/mean max effect (reference compound at 1 uM with 100% activity)
Description: The utility of the compounds in accordance with the present invention as orexin receptor OX1R and/or OX2R agonists may be readily determined without undue experimentation by methodology well known in the art. Both the OX1R and/or OX2R G-coupled protein receptors (GPCRs) couple through the Gaq signaling pathway, which ultimately promotes calcium mobilization via inositol triphosphate (IP3) production. The half-life of IP-3 is relatively short, being rapidly metabolized to inositol monophosphate (IP-1), which can be readily detected using a commercially available assay kit (IP-One; Cisbio; cat #621PAPEC) coupled with a cell line expressing the target receptor(s) of interest. The utility of the compounds in accordance with the present invention as orexin receptor OX1R and/or OX2R agonists may be determined utilizing this assay.
In a typical experiment, the OX1 and OX2 receptor agonist activity is determined in accordance with the following general experimental method. Chinese hamster ovary (CHO) cells expressing human OX1R and/or the human OX2R were grown in Iscove's modified DMEM containing glutaMAX™, 1% G418, 100 U/mL penicillin, 100 μg/mL streptomycin and 10% heat-inactivated qualified fetal bovine serum (FBS). The OX2R cells were seeded at 10,000 cells/well/50 μL and the OX1R cells were seeded at 20,000 cells/well/50 μL into 384-well white tissue culture plates (Greiner; cat #781080). All cell/media reagents were from GIBCO-Invitrogen Corp. The seeded cell plate(s) were incubated at 37° C. with 5% CO2 and 85% humidity for 20-24 hours. On the day of the assay, assay-ready compound plates were prepared using an acoustic liquid handler (ECHO; Labcyte), which dispensed sufficient volume of test compound stock (10 mM in DMSO) or 100% DMSO to prepare 10 point, ½-log dilutions in a final volume of 202.5 nL/well in all test wells of a 384-well diamond plate (Labcyte). Following completion of assay-ready plates, importantly, the next three steps were performed with minimal delay: 1) 20 μl of 1× stimulation buffer was added to the compound plate using a Multidrop Combi (small cassette, Thermo Fisher Scientific cat #24073290); 2) culture medium was removed from the cell plate using the Bluewasher plate washer (gentle spin; BlueCatBio); 3) 14 μl of compound/stimulation buffer mixture was added to the cell plate using a Bravo liquid handler (Agilent) prior to incubating cell plates at 37° C. with 5% CO2 and 85% humidity for 1 or 2 hours (OX1R and OX2R, respectively). During this incubation, IP-one detection reagents were prepared (38:1:1 lysis buffer:D2:AB-cryptate reagents). Six μL of mixed detection reagents were added to the cell plate using a Multidrop Combi (small cassette, Thermo Fisher Scientific cat #24073290) and incubated 60 minutes at room temperature in the dark. Fluorescence signal was detected using an Envision plate reader (Perkin Elmer) [LANCE/DELFIA Dual Enh (Em: APC 665; Ex: Cy5 620)].
For each compound, data were fit to a four parameter logistic fit (ActivityBase software) and the EC50 was reported as the inflection point of the resulting curve. Percent effect for each test compound was determined as the percentage of sample raw value/mean max effect, where the mean max effect was derived from the mean raw value of 32 control wells per assay plate (using Orexin A (cat #003-30) at 1 μM for human OX1R and a reference compound at 1 uM with 100% activity previously established by comparison to Orexin A for human OX2R). The intrinsic orexin receptor agonist activity of a compound which may be used in the present invention may be determined by these assays.

[1] = CHO cells expressing human OX2R, IP-One assay, 2 hours incubation, four parameter logistic fit, read-out: OX2R Potency, EC50

SMILES | pEC50 [1] | Emax, % of reference agonist | pEC50
CS(=O)(=O)N[C@H]1CCN(C(=O)NCC(F)(F)F)[C@H]1CO[C@H]1CC[C@@H](c2ccccc2)CC1 (relative stereo) [Example 10, (CIS)-3-(methylsulfonamido)-2-((((CIS)-4-phenylcyclohexyl)oxy)methyl)-N-(2,2,2-trifluoroethyl)pyrrolidine-1-carboxamide] | 8.44 | 103.7% | 
CS(=O)(=O)N[C@H]1CCN(C(=O)C2CC2)[C@H]1CO[C@H]1CC[C@@H](c2ccccc2)CC1 (relative stereo) [Example 8, N-((CIS)-1-(cyclopropanecarbonyl)-2-((((CIS)-4-phenylcyclohexyl)oxy)methyl)pyrrolidin-3-yl) methanesulfonamide] | 7.11 | 101.6% | 
CCNC(=O)N1CC[C@H](NS(C)(=O)=O)[C@@H]1CO[C@H]1CC[C@@H](c2ccccc2)CC1 (relative stereo) [Example 1, (CIS)-N-ethyl-3-(methylsulfonamido)-2-((((CIS)-4-phenylcyclohexyl)oxy)methyl)pyrrolidine-1-carboxamide] |  | 99.6% | 7.92
CCOC(=O)N1CC[C@@H](NS(C)(=O)=O)[C@H]1CO[C@H]1CC[C@@H](c2ccccc2)CC1 (relative stereo) [Example 4, ethyl (CIS)-3-(methylsulfonamido)-2-((((CIS)-4-phenylcyclohexyl)oxy)methyl) pyrrolidine-1-carboxylate] | 6.60 | 98.9% | 
CCS(=O)(=O)N[C@H]1CCN(C(=O)OC)[C@H]1CO[C@H]1CC[C@@H](c2ccccc2)CC1 (relative stereo) [Example 13, methyl (CIS)-3-(ethylsulfonamido)-2-((((CIS)-4-phenylcyclohexyl)oxy)methyl)pyrrolidine-1-carboxylate] | 6.87 | 99.9% | 
CS(=O)(=O)N[C@H]1CCN(C(=O)OCC(F)F)[C@H]1CO[C@H]1CC[C@@H](c2ccccc2)CC1 [Example 12, 2,2-difluoroethyl (2R,3S)-3-(methylsulfonamido)-2-((((CIS)-4-phenylcyclohexyl)oxy)methyl) pyrrolidine-1-carboxylate] | 7.09 | 101.1% | 
CCNC(=O)N1CC[C@H](NS(C)(=O)=O)[C@@H]1COC1CCC(C(C)C)CC1 (stereo partly drawn) [Example 28, (2R,3S)—N-ethyl-2-(((4-isopropylcyclohexyl)oxy)methyl)-3-(methylsulfonamido)pyrrolidine-1-carboxamide] |  | 99.8% | 7.24
CS(=O)(=O)N[C@H]1CCN(C(=O)NCC2CCC2)[C@H]1CO[C@H]1CC[C@@H](c2ccccc2)CC1 (relative stereo) [Example 21, (CIS)-N-(cyclobutylmethyl)-3-(methylsulfonamido)-2-((((CIS)-4-phenylcyclohexyl)oxy)-methyl)pyrrolidine-1-carboxamide] | 8.25 | 103.2% | 
COC(=O)N1CC[C@H](NS(C)(=O)=O)[C@@H]1CO[C@H]1CC[C@@H](c2ccccc2)CC1 [Example 11, methyl (2R,3S)-3-(methylsulfonamido)-2-((((CIS)-4-phenylcyclohexyl)oxy)methyl) pyrrolidine-1-carboxylate] | 6.94 | 100.2% | 
CS(=O)(=O)N[C@@H]1CCN(C(=O)OCCF)[C@@H]1CO[C@H]1CC[C@@H](c2ccccc2)CC1 (relative stereo) [Example 6, 2-fluoroethyl (CIS)-3-(methylsulfonamido)-2-((((CIS)-4-phenylcyclohexyl)oxy)methyl) pyrrolidine-1-carboxylate] | 6.67 | 98.4% | 

The next lines start with results.

pEC50 [1] | Emax, % of reference agonist | SMILES | pEC50
6.31 | 100.2% | CS(=O)(=O)N[C@H]1CCN(C(=O)OCC(F)(F)F)[C@H]1CO[C@H]1CC[C@@H](c2ccccc2)CC1 (relative stereo) [Example 24, 2,2,2-trifluoroethyl (CIS)-3-(methylsulfonamido)-2-((((CIS)-4-phenylcyclohexyl)oxy)methyl)pyrrolidine-1-carboxylate] | 
6.45 | 99.0% | COC(=O)N1CCC(NS(C)(=O)=O)[C@@H]1COC1CCC(C(C)C)CC1 (stereo in doubt) [Example 29, methyl (2R,3R)-2-(((4-isopropylcyclohexyl)oxy)methyl)-3-(methylsulfonamido)pyrrolidine-1-carboxylate] | 
6.43 | 101.3% | COC(=O)N1CC[C@@H](NS(=O)(=O)C(C)C)[C@H]1CO[C@H]1CC[C@@H](c2ccccc2)CC1 (relative stereo) [Example 14, methyl (CIS)-3-((1-methylethyl)sulfonamido)-2-((((CIS)-4-phenylcyclohexyl)oxy)methyl) pyrrolidine-1-carboxylate] | 
6.60 | 99.6% | CS(=O)(=O)N[C@H]1CCN(C(=O)NC2CC2)[C@H]1CO[C@H]1CC[C@@H](c2ccccc2)CC1 (relative stereo) [Example 22, (CIS)-N-cyclopropyl-3-(methylsulfonamido)-2-((((CIS)-4-phenylcyclohexyl)oxy)methyl)pyrrolidine-1-carboxamide] | 
6.36 | 100.6% | CC(C)C1CCC(OC[C@H]2[C@@H](NS(C)(=O)=O)CCN2C(=O)C2CC2)CC1 (stereo partly drawn) [Example 30, N-((2R,3S)-1-(cyclopropanecarbonyl)-2-(((4-isopropylcyclohexyl)oxy)methyl)pyrrolidin-3-yl)methanesulfonamide] | 
7.18 | 98.5% | CNS(=O)(=O)N[C@@H]1CCN(C(=O)OC)[C@@H]1CO[C@H]1CC[C@@H](c2ccccc2)CC1 (relative stereo) [Example 18, methyl (CIS)-3-((N-methylsulfamoyl)amino)-2-((((CIS)-4-phenylcyclohexyl)oxy)methyl) pyrrolidine-1-carboxylate] | 
7.31 | 100.2% | CS(=O)(=O)N[C@H]1CCN(C(=O)C2CC2)C1COC1CCC(c2ccccc2)CC1 (single isomer, unassigned) [Example 27] | 
5.43 | 82.3% | COC(=O)N1CC[C@H](NS(=O)(=O)c2ccccc2)[C@@H]1CO[C@H]1CC[C@@H](c2ccccc2)CC1 (relative stereo) [Example 17, methyl (CIS)-2-((((CIS)-4-phenylcyclohexyl)oxy)methyl)-3-(phenylsulfonamido)pyrrolidine-1-carboxylate] | 
7.40 | 98.8% | COC(=O)N1CC[C@@H](NS(=O)(=O)N(C)C)[C@H]1CO[C@H]1CC[C@@H](c2ccccc2)CC1 (relative stereo) [Example 19, methyl (CIS)-3-((N,N-dimethylsulfamoyl)amino)-2-((((CIS)-4-phenylcyclohexyl)oxy)methyl) pyrrolidine-1-carboxylate] | 

Source: patent US12331018B2, “Pyrrolidine orexin receptor agonists” (Merck Sharp & Dohme LLC, priority 2019, dated 2025)
